Measured values taken from patent US20180064780A1, “SHEAR CONTROLLED RELEASE FOR STENOTIC LESIONS AND THROMBOLYTIC THERAPIES” (PRESIDENT AND FELLOWS OF HARVARD COLLEGE, priority 2010, published 2018).

Tests used:
fibrin clots = molecular target: T1, fibrin clots (Homo sapiens, UniProt P02671+P02675+P02679); assay: Microfluidic model of vascular embolism (fibrin clot lysis); format: biochemical; details: t-PA 50 ng/ml; within 1 hour; 10 dyne/cm^2 in unobstructed channel
T1 construct: purchased Enzyme Research Laboratories, IN (fibrinogen, alpha-thrombin); Cell Sciences, MA (plasminogen)
T1 sequence (P02671 36-629 limits assumed): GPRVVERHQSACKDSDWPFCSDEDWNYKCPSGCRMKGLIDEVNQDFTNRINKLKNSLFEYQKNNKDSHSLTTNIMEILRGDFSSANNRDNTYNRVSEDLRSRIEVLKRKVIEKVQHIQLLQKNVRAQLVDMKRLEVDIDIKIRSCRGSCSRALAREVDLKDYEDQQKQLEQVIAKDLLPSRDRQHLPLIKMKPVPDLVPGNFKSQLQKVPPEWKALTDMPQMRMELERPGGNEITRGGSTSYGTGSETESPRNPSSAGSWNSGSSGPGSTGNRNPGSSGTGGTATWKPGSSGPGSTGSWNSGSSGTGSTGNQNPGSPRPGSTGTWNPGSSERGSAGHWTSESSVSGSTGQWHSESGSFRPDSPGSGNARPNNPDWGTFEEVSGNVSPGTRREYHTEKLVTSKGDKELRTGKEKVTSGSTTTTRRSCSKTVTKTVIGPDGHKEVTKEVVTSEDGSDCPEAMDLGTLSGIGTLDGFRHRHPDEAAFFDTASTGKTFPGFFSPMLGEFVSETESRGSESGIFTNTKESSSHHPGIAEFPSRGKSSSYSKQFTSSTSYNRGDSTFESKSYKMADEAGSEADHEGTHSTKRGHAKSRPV
T1 sequence (P02675 45-491 limits assumed): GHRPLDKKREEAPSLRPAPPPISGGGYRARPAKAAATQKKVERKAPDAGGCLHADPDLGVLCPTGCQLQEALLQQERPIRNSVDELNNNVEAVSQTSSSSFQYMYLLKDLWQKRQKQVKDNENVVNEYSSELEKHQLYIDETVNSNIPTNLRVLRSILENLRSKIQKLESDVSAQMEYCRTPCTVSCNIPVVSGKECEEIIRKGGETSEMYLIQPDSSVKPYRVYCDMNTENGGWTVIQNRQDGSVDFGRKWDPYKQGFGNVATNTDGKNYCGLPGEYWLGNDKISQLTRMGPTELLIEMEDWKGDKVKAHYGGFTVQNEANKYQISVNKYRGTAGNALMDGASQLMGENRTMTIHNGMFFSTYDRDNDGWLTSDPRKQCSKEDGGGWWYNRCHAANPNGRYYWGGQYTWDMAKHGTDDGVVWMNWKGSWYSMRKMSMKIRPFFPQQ
T1 sequence (P02679 27-437 isoform P02679-2 limits assumed): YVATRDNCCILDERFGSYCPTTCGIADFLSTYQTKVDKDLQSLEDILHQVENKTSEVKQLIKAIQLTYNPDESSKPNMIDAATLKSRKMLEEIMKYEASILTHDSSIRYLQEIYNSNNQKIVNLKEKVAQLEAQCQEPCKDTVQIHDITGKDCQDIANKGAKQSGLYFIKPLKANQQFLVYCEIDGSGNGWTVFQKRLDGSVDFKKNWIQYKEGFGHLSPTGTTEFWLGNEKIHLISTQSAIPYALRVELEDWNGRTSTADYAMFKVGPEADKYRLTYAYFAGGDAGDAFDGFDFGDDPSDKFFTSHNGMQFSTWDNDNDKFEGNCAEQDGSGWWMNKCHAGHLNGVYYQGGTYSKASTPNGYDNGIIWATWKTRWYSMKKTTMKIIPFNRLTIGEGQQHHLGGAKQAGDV
Source text: Microfluidic Models of Vascular Embolism—
Microfluidic devices with a narrowed cross-sectional area (80 μm high×0.5 mm wide s 200 mm long) were fabricated using soft lithography as described above. Fibrin clots formed as described below that were infused into the main channel lodged and obstructed the flow in these smaller channels. A solution of t-PA or t-PA coated microaggregates was infused at a flow rate corresponding to a shear stress of 10 dyne/cm^2 in an unobstructed channel. Prior to infusion of the t-PA solutions, bovine plasminogen (Cell Sciences, MA) was added to a final concentration of 2.2 μM (S. L. Diamond, Annual review of biomedical engineering 1, 427 (1999)). During the fibrinolysis process, the fibrin clots size were monitored in real-time (images acquired every 30 sec) on an inverted Zeiss microscope.
Experimental Fibrin Emboli—
Fibrin clots were formed by adding CaCl2 (20 mM) and human α-thrombin (1 units/ml final concentrations, Enzyme Research Laboratories, IN) to human fibrinogen (5 mg/ml, Enzyme Research Laboratories, IN), as previously described (J. C. Murciano et al., Nature biotechnology 21, 891 (2003) and C. K. Lam, T. Yoo, B. Hiner, Z. Liu, J. Grutzendler, Nature 465, 478 (2010)). […] The diameter of the resulting fibrin beads was determined by optical microscopy to be ˜[…].

[1] = system: ex vivo whole mouse lung with fibrin emboli; assay: Mouse pulmonary embolism model (ex vivo whole lung ventilation-perfusion); format: in vivo
Procedure: Mouse Pulmonary Embolism Model—
Male 6-8 week-old C57BL/6 mice (Jackson Laboratory, Bar Harbor, Me.) were weighed and anesthetized with Avertin (200 mg/kg IP). The trachea was incised via surgical tracheotomy, and cannulated with a blunted 22G stainless steel needle tip. The lungs were subsequently ventilated at a rate of 60 breaths/min, with a Peak Inspiratory Pressure (Pip) of 10 cm H2O and a Positive End Expiratory Pressure (Peep) of 3 cm H2O with compressed air using a mouse ventilator (VCM-R, Hugo Sachs Elektroniks, Germany). Ex vivo ventilation and perfusion of the mouse lung was performed using a IL1 ex vivo mouse lung ventilation-perfusion system (Harvard Apparatus, Natick, Mass.), (D. Huh et al., Science 328, 1662 (2010)). Following initiation of mechanical ventilation, the chest was opened via thoracotomy, and heparin (100 IU) was injected into the right ventricle. […] A suture was placed around the pulmonary artery and aorta. Cannulae made from polyethylene tubing (PE90 (0.86 mm ID, 1.7 mm OD)) were placed in the pulmonary artery (PA) and left atrium (LA), and lungs were perfused with RPMI-1640 with 4% Bovine Albumin (Probumin™ Reagent Grade, Billerica, Mass.) and 0.7 g NaCl/500 mL via a roller pump (ISM 834C, Ismatec SA, Switzerland) set at a constant flow rate of 0.5 ml/min in a recirculating system with a system volume of 6 mL. Perfusate and lung temperatures were maintained at 37° C. by housing the entire ex-vivo ventilation perfusion system inside a standard cell incubator without CO2 (Forma Scientific, Ohio). Humidity was maintained in the range of 90-95%. Pulmonary arterial and venous pressures and airway flow and pressures were recorded with dedicated Type 379 vascular pressure and DLP2.5 flow and MPX Type 399/2 airway pressure transducers and TAM-A amplifiers (Hugo Sachs Elektroniks, Germany). Vascular pressures were zeroed at the mid lung level prior to each experiment and recorded using Polyview16© software (Grass Technologies, West Warwick, R.I.) running on a desktop PC running Windows XP SP2 (Microsoft Corporation, Redmond, Wash.).
Prior to injection of experimental fibrin clots (prepared as above), the measured parameters were allowed to stabilize and remain stable for a period of more than 10 minutes. A solution of fibrin clots suspended in perfusion medium was infused at a flow rate of 0.1 ml/min and mixed with the regular perfusion line entering the pulmonary artery. The fibrin clot suspension was infused until the pulmonary artery pressure increased to ˜three-fold higher than the baseline. The system was then allowed to equilibrate and remain stable for at least 10 minutes. Next, tPA-coated platelet mimetics or free soluble tPA was added to the main perfusion line and circulated through the perfusion system. As in the microfluidic device experiments, when tPA was perfused, plasminogen was added to obtain a final concentration of 2.2 μM. Pulmonary artery and vein pressures were acquired continuously during the perfusion period. At the end of each experiment, lungs were perfused with 4% paraformaldehyde, and prepared for sectioning by incubating in 4% paraformaldehyde, then sucrose and OCT. All experimental animal protocols were approved by the Institutional Animal Care and Use Committee at Children's Hospital Boston and Harvard Medical School.

tissue plasminogen activator [free t-PA]
reduction of emboli (clot) size (fibrin clots): < 5%
dose required for similar effects on thrombolysis relative to tPA-coated platelet mimetics ([1]; 5000 ng/ml vs 50 ng/ml): 100 fold
effect on pulmonary artery pressure ([1]; 10 times higher dose, 500 ng/ml (FIG. 5G)): did not reduce the pulmonary artery pressure
effect on pulmonary artery pressure ([1]; tPA 50 ng/ml (FIG. 5G)): did not reduce the pulmonary artery pressure
effect on pulmonary artery pressure ([1]; tPA 50 ng/ml (FIG. 5G), listed as soluble tPA): failed to produce any significant clinical response
real-time pulmonary artery pressure: effect on pulmonary hypertension ([1]; tPA 50 ng/ml (FIG. 5H)): ineffective
